We go through ten compounds from ChEMBL document CHEMBL1201862, “PubChem BioAssay data set” (2004).

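In this assay, cells in 96-well plates receive the compound at five concentrations for 48 hours. Endpoints are linearly interpolated between the surrounding concentrations. GI50 is the concentration that inhibits growth by half.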 Calls of active or inactive are those of the source. Rule as the data show it: active = GI50 up to about 1.1 µM and inactive = higher. A value given as a limit tells only on which side of the number the result lay.

Among the test systems are SN12C; NCI-H522; UO-31; RXF 393; NCI/ADR-RES; PC-3; KM12; TK-10; MCF7; HOP-92; SF-539; SK-MEL-28; HCC 2998; SW-620; SK-OV-3; OVCAR-5; MDA-N; ACHN; MDA-MB-231; CAKI-1.
What all share (test): DTP human tumour cell line panel, 48 h

As to `O=C1c2cc(CCl)sc2C(=O)c2ccsc21`, the GI50 with SN12C was 0.277 µM (active); in the test on NCI-H522 it was 0.422 µM (active); in the test on UO-31, 0.301 µM (active); in the test on RXF 393 it was 0.231 µM (active); in the test with NCI/ADR-RES it was 0.2 µM (active); with PC-3, 0.254 µM (active). Moreover, the GI50 in the test on KM12 was 1.62 µM (inactive); in the test with TK-10, 1.95 µM (inactive); in the test on MCF7, 0.197 µM (active); in the test on HOP-92 it was 0.427 µM (active); in the test on SF-539 it was 0.228 µM (active); in the test with SK-MEL-28 it was 0.0634 µM (active). The GI50 is 1.67 µM (inactive) in the test with HCC 2998; 0.195 µM (active) with SW-620; 1.85 µM (inactive) in the test on SK-OV-3; 1.85 µM (inactive) with OVCAR-5; 0.0183 µM (active) in the test with MDA-N; 0.327 µM (active) in the test with ACHN. Moreover, the GI50 in the test with MDA-MB-231 is 0.232 µM (active); in the test with CAKI-1, 1.72 µM (inactive).

As to `C1CSC(Sc2nc(SC3=NCCS3)nc(SC3=NCCS3)n2)=N1`, the GI50 is > 100 µM (inactive) in the test with SN12C; 35.5 µM (inactive) in the test on NCI-H522; > 100 µM (inactive) with UO-31; > 100 µM (inactive) in the test with RXF 393; > 100 µM (inactive) with NCI/ADR-RES; > 100 µM (inactive) in the test on PC-3. Besides, the GI50 in the test with KM12, in the test with TK-10, in the test with MCF7, in the test on HOP-92, in the test with SF-539 and with SK-MEL-28 was > 100 µM (inactive) each time. The GI50 with HCC 2998, in the test with SW-620, in the test on SK-OV-3, with OVCAR-5, with MDA-N and in the test on ACHN was > 100 µM (inactive) in each case. Besides, the GI50 in the test on MDA-MB-231 and with CAKI-1 was > 100 µM (inactive) each time.

Turning to `COc1ccc(/C=C2/C(=O)C(c3ccccc3)N(c3ccccc3)C2=O)cc1OC` (stereo not given), the GI50 in the test with SN12C, with NCI-H522, with UO-31, in the test with RXF 393, in the test with NCI/ADR-RES and with PC-3 was > 10 µM (inactive) in each case. Moreover, the GI50 in the test on KM12, with TK-10, in the test on MCF7, in the test with HOP-92, with SF-539 and with SK-MEL-28 was > 10 µM (inactive) in each case. Besides, the GI50 in the test on HCC 2998, in the test on SW-620, in the test on SK-OV-3, with OVCAR-5, in the test with MDA-N and in the test with ACHN was > 10 µM (inactive) each time. Moreover, the GI50 in the test on MDA-MB-231 and with CAKI-1 was > 10 µM (inactive) in each case.

Turning to `O=[N+]([O-])c1ccc2sc(/C=N/c3cnccn3)cc2c1`, the GI50 is 45.6 µM (inactive) in the test with SN12C; 32.5 µM (inactive) in the test with NCI-H522; 24.1 µM (inactive) with UO-31; 0.597 µM (active) with RXF 393; 70.3 µM (inactive) with NCI/ADR-RES; 31 µM (inactive) with PC-3. Moreover, the GI50 is 57.5 µM (inactive) with KM12; 30.3 µM (inactive) in the test with TK-10; 5.74 µM (inactive) in the test on MCF7; 60.1 µM (inactive) with HOP-92; 31.6 µM (inactive) with SF-539; 28.3 µM (inactive) in the test with SK-MEL-28. The GI50 with HCC 2998 was 18.7 µM (inactive); with SW-620, 25 µM (inactive); in the test on SK-OV-3, 30.4 µM (inactive); with OVCAR-5, 36.4 µM (inactive); in the test on MDA-N it was 24.1 µM (inactive); in the test on ACHN, 30.9 µM (inactive). The GI50 is 23.7 µM (inactive) in the test with MDA-MB-231 and 57.3 µM (inactive) with CAKI-1.

In the case of `CCOC(=O)c1cn(CC)c2ccc3ccsc3c2c1=O`, the GI50 with NCI-H522, with UO-31, in the test on RXF 393, in the test on NCI/ADR-RES, in the test on PC-3 and in the test with KM12 was > 100 µM (inactive) throughout. The GI50 in the test on TK-10, in the test on MCF7, in the test on HOP-92, in the test on SF-539, in the test on SK-MEL-28 and with HCC 2998 was > 100 µM (inactive) throughout. Also, the GI50 in the test with SW-620, in the test with SK-OV-3, with OVCAR-5, with MDA-N, with ACHN and with MDA-MB-231 was > 100 µM (inactive) throughout. Further, the GI50 with CAKI-1 was > 100 µM (inactive).

Consider `COC(=O)Cc1c2n(c3ccccc13)C(=O)N1c3ccccc3C(CC(=O)OC)C21` (stereo not given), for which the GI50 is > 100 µM (inactive) in the test with SN12C; 62.1 µM (inactive) with NCI-H522; 54.5 µM (inactive) with UO-31; 21.2 µM (inactive) in the test on RXF 393; 53.1 µM (inactive) with NCI/ADR-RES; 51.5 µM (inactive) in the test on PC-3. The GI50 with TK-10 was 14.9 µM (inactive); in the test on MCF7 it was 59.3 µM (inactive); in the test on HOP-92, 9.73 µM (inactive); in the test with SF-539 it was 16.1 µM (inactive); in the test with SK-MEL-28 it was > 100 µM (inactive); in the test on HCC 2998 it was 68.1 µM (inactive). In addition, the GI50 in the test with SW-620 is > 100 µM (inactive); in the test on SK-OV-3, 21.8 µM (inactive); in the test on OVCAR-5, 32.9 µM (inactive); with MDA-N, > 100 µM (inactive); with ACHN it was 24.4 µM (inactive); in the test on MDA-MB-231 it was 17.3 µM (inactive). In the test on CAKI-1, the GI50 was 21.1 µM (inactive).

`O=C(O)C(F)(OC(F)(F)C(F)(OC(F)(F)C(F)(F)C(F)(F)F)C(F)(F)F)C(F)(F)F` (stereo not given): the GI50 was 78.5 µM (inactive) in the test with SN12C; > 100 µM (inactive) with NCI-H522; > 100 µM (inactive) with UO-31; > 100 µM (inactive) with RXF 393; > 100 µM (inactive) in the test with NCI/ADR-RES; 59.7 µM (inactive) in the test on PC-3. The GI50 in the test with KM12 was > 100 µM (inactive); with TK-10, > 100 µM (inactive); in the test on MCF7 it was > 100 µM (inactive); in the test on HOP-92 it was 63.7 µM (inactive); in the test on SF-539 it was > 100 µM (inactive); with SK-MEL-28, > 100 µM (inactive). In addition, the GI50 with HCC 2998, in the test with SW-620, with SK-OV-3, with OVCAR-5, in the test with MDA-N and with ACHN was > 100 µM (inactive) in each case. In addition, the GI50 with MDA-MB-231 and in the test with CAKI-1 was > 100 µM (inactive) throughout.

`O=[N+]([O-])c1ccc(N/N=C/CC(O)(C(F)(F)F)C(F)(F)F)c([N+](=O)[O-])c1`: the GI50 with SN12C was 3.41 µM (inactive); in the test with NCI-H522, 3.21 µM (inactive); in the test with UO-31 it was 3.06 µM (inactive); in the test on RXF 393, 5.35 µM (inactive); in the test with NCI/ADR-RES it was 3.68 µM (inactive); in the test with PC-3, 3.24 µM (inactive). Besides, the GI50 in the test on KM12 was 4.82 µM (inactive); in the test with TK-10 it was 5.79 µM (inactive); in the test on MCF7 it was 3.78 µM (inactive); with HOP-92 it was 2.17 µM (inactive); in the test on SF-539, 2.3 µM (inactive); with SK-MEL-28 it was 7.78 µM (inactive). Moreover, the GI50 in the test on HCC 2998 is 5.32 µM (inactive); with SW-620, 7.33 µM (inactive); in the test on SK-OV-3, 4.8 µM (inactive); with MDA-N, 5.25 µM (inactive); in the test with ACHN it was 3.52 µM (inactive); in the test with MDA-MB-231, > 10 µM (inactive). In addition, the GI50 with CAKI-1 was 3.15 µM (inactive).

Regarding `COC(=O)C1(C)CCCC2(C)c3cc(OC)ccc3C(=O)C(Br)C12` (stereo not given), the GI50 with SN12C is 8.61 µM (inactive); with NCI-H522, 2.86 µM (inactive); in the test on UO-31, 1.84 µM (inactive); in the test on RXF 393, 9.23 µM (inactive); in the test on NCI/ADR-RES it was > 10 µM (inactive); in the test on PC-3 it was 9.73 µM (inactive). The GI50 with KM12 was > 10 µM (inactive); in the test with TK-10, > 10 µM (inactive); with MCF7, 1.95 µM (inactive); in the test on HOP-92 it was > 10 µM (inactive); with SF-539 it was > 10 µM (inactive); in the test with SK-MEL-28, > 10 µM (inactive). For the same compound, the GI50 with HCC 2998 was > 10 µM (inactive); in the test with SW-620 it was 2.15 µM (inactive); in the test on SK-OV-3, > 10 µM (inactive); in the test on OVCAR-5, 8.02 µM (inactive); with MDA-N it was 3.81 µM (inactive); with MDA-MB-231, 3.35 µM (inactive). The GI50 in the test with CAKI-1 was 4.05 µM (inactive).

Turning to `CN(C)c1ccc(C=c2c3cc(O)ccc3n3c2cc(-c2ccccc2)[n+]3C)cc1`, the GI50 is 0.33 µM (active) in the test on SN12C; 0.337 µM (active) with NCI-H522; 2.93 µM (inactive) in the test with UO-31; 1.53 µM (inactive) in the test with RXF 393; 36.1 µM (inactive) with NCI/ADR-RES; 0.9 µM (active) in the test with PC-3. For the same compound, the GI50 with KM12 was 1.06 µM (active); in the test on TK-10, 3.72 µM (inactive); in the test with MCF7 it was 0.692 µM (active); in the test on HOP-92, 1.13 µM (inactive); in the test with SK-MEL-28 it was 1.06 µM (active); in the test on HCC 2998 it was 2.22 µM (inactive). For the same compound, the GI50 with SW-620 was 1.22 µM (inactive); in the test on SK-OV-3, 3.08 µM (inactive); with OVCAR-5, 4.82 µM (inactive); with MDA-N it was 0.67 µM (active); in the test on ACHN, 7.78 µM (inactive); in the test with MDA-MB-231 it was 1.04 µM (active). The GI50 with CAKI-1 is 8.63 µM (inactive).
